Results on 13 molecules are retold here after paper PMC6277434, “Discovery of a potent HMG-CoA reductase degrader that eliminates statin-induced reductase accumulation and lowers cholesterol” (Nature Communications, 2018).

The structures appear in SMILES notation.

Assay [1] addresses T1, HMGCR (TM1-8)-GFP (Cricetulus griseus, UniProt P00347).
T1 sequence (P00347 1-346): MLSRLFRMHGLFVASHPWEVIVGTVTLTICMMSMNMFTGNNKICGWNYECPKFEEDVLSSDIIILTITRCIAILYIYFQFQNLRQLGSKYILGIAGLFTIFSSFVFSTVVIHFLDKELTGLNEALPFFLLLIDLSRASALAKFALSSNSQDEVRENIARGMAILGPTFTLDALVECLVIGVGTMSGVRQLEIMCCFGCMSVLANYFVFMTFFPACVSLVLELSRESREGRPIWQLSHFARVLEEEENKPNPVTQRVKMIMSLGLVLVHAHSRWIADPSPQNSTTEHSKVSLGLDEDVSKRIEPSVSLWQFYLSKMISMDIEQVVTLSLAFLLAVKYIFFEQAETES
Kind of assay: HMGCR (TM1-8)-GFP fluorescent assay (high-content imaging) in CHG cells. As to conditions: read-out: Mean (HMGCR (TM1-8)-GFP signal relative to 0 μM = 100).
Experimental: (§1) We thus generated a cell line stably expressing the transmembrane domain of HMGCR fused with green fluorescent protein (GFP) as a reporter (HMGCR (TM1-8)-GFP) (Fig. 2a).
(§2) CHO-7 cells were transfected with pCMV-HMGCR (TM1-8)-GFP using FuGENE HD. Twenty-four hours, cells were switched to medium B supplemented with 5% FBS and selected in the presence of 1 mg ml^−1 G418 for 2 weeks. Surviving colonies were isolated and confirmed for GFP expression by immunoblotting and immunofluorescence. The resulting CHO-7/HMGCR (TM1-8)-GFP stable cell line (CHG) was maintained in medium B supplemented with 5% FBS and 200 μg ml^−1 G418.
(§3) CHG cells were treated as described in figure legends. Briefly, cells were seeded at day 0 in 96-well black plate (3904, Corning) at a density of 1.5 × 10^4 cells per well, in medium B containing with 5% LPDS. Day 1, corresponding compounds were added as figure legends described in medium B with 5% LPDS, 1 μM lovastatin, 50 μM sodium mevalonate for 16 h. Then cells were fixed with 4% paraformaldehyde for 20 min, washed with PBS for three times, and stained with 2 μg ml^−1 Hoechst 33342.
(§4) The fluorescent images (GFP and Hoechst channel) were captured using an Operatta High-Content Imaging System (PerkinElmer) with a ×20 objective. The cytoplasmic GFP fluorescence was measured with the Harmony Software (PerkinElmer). Five random selected filed per well were captured, and about 3000 cells were used to determine the mean cytoplasmic GFP fluorescent intensity per cell after subtracting background GFP intensity. The average GFP intensity of DMSO-treated cells was defined as 100.

Assay [2] has as its target T1, HMGCR (TM1-8)-GFP.
Experimental: as §1, §2, §3, §4

`C[C@H](CCCCC(C)(C)O)C1CCC2C3C(CC[C@@]21C)[C@@]1(C)CC[C@H](O)C(C)(C)C1=C[C@@H]3O` (some centres unmarked) [Compound 100]: in assay [1], the remaining activity at 0.156 µM was 78.6%, the remaining activity at 0.313 µM is 69.4%, the remaining activity at 0.625 µM turned out to be 51.6% and the remaining activity at 1.25 µM was determined as 33.5%. In addition, in assay [1], the remaining activity at 2.5 µM came out at 21.6%, the remaining activity at 5 µM stood at 14.8% and the remaining activity at 10 µM is 12.4%. Also, in assay [2], the DC50 was 510 nM.

As to `CCC(O)(CC)CCCC[C@@H](C)C1CCC2C3C(CC[C@@]21C)[C@@]1(C)CC[C@H](O)C(C)(C)C1=C[C@@H]3O` (some centres unmarked) [Compound 101], in assay [1], the remaining activity at 0.156 µM amounted to 86.6%, the remaining activity at 0.313 µM was determined as 74%, the remaining activity at 0.625 µM stood at 52.3% and the remaining activity at 1.25 µM is 35.6%. Further, in assay [1], the remaining activity at 2.5 µM was 22.8%, the remaining activity at 5 µM came out at 15.2% and the remaining activity at 10 µM is 15.2%. In assay [2], this molecule returned a DC50 of 590 nM.

`C=CCC(O)(CC=C)CCCC[C@@H](C)C1CCC2C3C(CC[C@@]21C)[C@@]1(C)CC[C@H](O)C(C)(C)C1=C[C@@H]3O` (some centres unmarked) [Compound 102]: in assay [1], the remaining activity at 0.156 µM was 108%, the remaining activity at 0.313 µM is 104%, the remaining activity at 0.625 µM turned out to be 86.9% and the remaining activity at 1.25 µM was 56.5%. Moreover, in assay [1], the remaining activity at 2.5 µM was 37.2%, the remaining activity at 5 µM turned out to be 31.7% and the remaining activity at 10 µM is 31.8%. Further, in assay [2], the DC50 is 1920 nM.

With `CC(O)CCCC[C@@H](C)C1CCC2C3C(CC[C@@]21C)[C@@]1(C)CC[C@H](O)C(C)(C)C1=C[C@@H]3O` (some centres unmarked) [Compound 107], in assay [1], the remaining activity at 0.156 µM was determined as 90.7%, the remaining activity at 0.313 µM is 83.1%, the remaining activity at 0.625 µM is 72.6% and the remaining activity at 1.25 µM was 51.8%. Moreover, in assay [1], the remaining activity at 2.5 µM was determined as 26.9%, the remaining activity at 5 µM turned out to be 17.1% and the remaining activity at 10 µM was found to be 13.1%. Besides, the DC50 in assay [2] was 1290 nM.

Take `CCC(O)CCCC[C@@H](C)C1CCC2C3C(CC[C@@]21C)[C@@]1(C)CC[C@H](O)C(C)(C)C1=C[C@@H]3O` (some centres unmarked) [Compound 108]: in assay [1], the remaining activity at 0.156 µM was 90.7%, the remaining activity at 0.313 µM came out at 77.2%, the remaining activity at 0.625 µM worked out at 56.5% and the remaining activity at 1.25 µM amounted to 39.2%. In assay [1], the remaining activity at 2.5 µM was determined as 29.4%, the remaining activity at 5 µM was found to be 25.5% and the remaining activity at 10 µM is 18.6%. Further, the DC50 in assay [2] amounted to 1030 nM.

For the molecule `C=CCC(O)CCCC[C@@H](C)C1CCC2C3C(CC[C@@]21C)[C@@]1(C)CC[C@H](O)C(C)(C)C1=C[C@@H]3O` (some centres unmarked) [Compound 109], in assay [1], the remaining activity at 0.156 µM stood at 91%, the remaining activity at 0.313 µM came to 76.5%, the remaining activity at 0.625 µM was 54.8% and the remaining activity at 1.25 µM stood at 36.4%. In addition, in assay [1], the remaining activity at 2.5 µM came to 23.5%, the remaining activity at 5 µM was determined as 18.8% and the remaining activity at 10 µM was 25.2%. Moreover, in assay [2], the DC50 stood at 910 nM.

For `C[C@H](CCCCCCO)C1CCC2C3C(CC[C@@]21C)[C@@]1(C)CC[C@H](O)C(C)(C)C1=C[C@@H]3O` (some centres unmarked) [Compound 113], in assay [1], the remaining activity at 0.156 µM came to 94.7%, the remaining activity at 0.313 µM was 91.3%, the remaining activity at 0.625 µM came to 72.7% and the remaining activity at 1.25 µM was 57.4%. In addition, in assay [1], the remaining activity at 2.5 µM stood at 35.8%, the remaining activity at 5 µM was 22% and the remaining activity at 10 µM was 24.1%. In assay [2], the DC50 stood at 1720 nM.

In the case of `C[C@H](CCCCCC(C)(C)O)C1CCC2C3C(CC[C@@]21C)[C@@]1(C)CC[C@H](O)C(C)(C)C1=C[C@@H]3O` (some centres unmarked) [Compound 117], in assay [1], the remaining activity at 0.156 µM came out at 92%, the remaining activity at 0.313 µM turned out to be 72.4%, the remaining activity at 0.625 µM is 47.7% and the remaining activity at 1.25 µM turned out to be 29.5%. Also, in assay [1], the remaining activity at 2.5 µM worked out at 20.4%, the remaining activity at 5 µM worked out at 16.1% and the remaining activity at 10 µM was determined as 20.4%. Further, the DC50 in assay [2] is 710 nM.

For the molecule `CCC(O)(CC)CCCCC[C@@H](C)C1CCC2C3C(CC[C@@]21C)[C@@]1(C)CC[C@H](O)C(C)(C)C1=C[C@@H]3O` (some centres unmarked) [Compound 118], in assay [1], the remaining activity at 0.156 µM was determined as 93.8%, the remaining activity at 0.313 µM came to 76.6%, the remaining activity at 0.625 µM worked out at 55.5% and the remaining activity at 1.25 µM was 38.3%. Besides, in assay [1], the remaining activity at 2.5 µM stood at 26.4%, the remaining activity at 5 µM worked out at 20.4% and the remaining activity at 10 µM came out at 21.8%. In addition, the DC50 in assay [2] was found to be 970 nM.

As to `C=CCC(O)(CC=C)CCCCC[C@@H](C)C1CCC2C3C(CC[C@@]21C)[C@@]1(C)CC[C@H](O)C(C)(C)C1=C[C@@H]3O` (some centres unmarked) [Compound 119], in assay [1], the remaining activity at 0.156 µM was determined as 92.9%, the remaining activity at 0.313 µM was 96%, the remaining activity at 0.625 µM was found to be 91.6% and the remaining activity at 1.25 µM amounted to 81.1%. In addition, in assay [1], the remaining activity at 2.5 µM is 62.7%, the remaining activity at 5 µM was 42.5% and the remaining activity at 10 µM is 28.9%. The DC50 in assay [2] was determined as 4130 nM.

For `CC(O)CCCCC[C@@H](C)C1CCC2C3C(CC[C@@]21C)[C@@]1(C)CC[C@H](O)C(C)(C)C1=C[C@@H]3O` (some centres unmarked) [Compound 124], in assay [1], the remaining activity at 0.156 µM was 88%, the remaining activity at 0.313 µM worked out at 78.3%, the remaining activity at 0.625 µM came out at 62.2% and the remaining activity at 1.25 µM worked out at 38.2%. Besides, in assay [1], the remaining activity at 2.5 µM is 19.5%, the remaining activity at 5 µM was determined as 14.7% and the remaining activity at 10 µM worked out at 21.8%. The same molecule returned a DC50 in assay [2] of 920 nM.

With `CCC(O)CCCCC[C@@H](C)C1CCC2C3C(CC[C@@]21C)[C@@]1(C)CC[C@H](O)C(C)(C)C1=C[C@@H]3O` (some centres unmarked) [Compound 125], in assay [1], the remaining activity at 0.156 µM turned out to be 83.6%, the remaining activity at 0.313 µM came to 77.5%, the remaining activity at 0.625 µM was found to be 65.3% and the remaining activity at 1.25 µM was determined as 50.2%. Besides, in assay [1], the remaining activity at 2.5 µM was found to be 41.6%, the remaining activity at 5 µM was found to be 34.7% and the remaining activity at 10 µM worked out at 33.6%. The DC50 in assay [2] worked out at 1830 nM.

For `C=CCC(O)CCCCC[C@@H](C)C1CCC2C3C(CC[C@@]21C)[C@@]1(C)CC[C@H](O)C(C)(C)C1=C[C@@H]3O` (some centres unmarked) [Compound 126], in assay [1], the remaining activity at 0.156 µM was found to be 76.4%, the remaining activity at 0.313 µM was determined as 72.3%, the remaining activity at 0.625 µM was 58.7% and the remaining activity at 1.25 µM amounted to 50.3%. For the same molecule, in assay [1], the remaining activity at 2.5 µM worked out at 44.6%, the remaining activity at 5 µM was found to be 45.5% and the remaining activity at 10 µM came to 44.4%. Besides, in assay [2], the DC50 was 2450 nM.
